Values belong to the compound of their own block, whether it stands above or below them.
Tests used:
Homo sapiens = species on record: Homo sapiens; experiment: Cholecystokinin CCK2 (CCKB) Eurofins-Panlabs radioligand binding assay; set-up: ligand concentration 0.072 nM, non-specific ligand with concentration 1 µM Sincalide, incubation time 3 h, incubation temperature 25 °C; conditions: Compound concentration 10.0 uM
[1] = target: Neuromedin-K receptor (Homo sapiens) (UniProt P29371); experiment: (§1) Tachykinin NK3 Eurofins-Panlabs radioligand binding assay; set-up: ligand concentration 0.8 nM; conditions: Compound concentration 10.0 uM
[2] = target: Free fatty acid receptor 1 (Homo sapiens, UniProt O14842); experiment: FLIPR functional assay (Ca influx activity of CHO cells)
[3] = target: C5a anaphylatoxin chemotactic receptor 1 (Homo sapiens) (UniProt P21730); experiment: Anaphylatoxin C5a Eurofins-Panlabs radioligand binding assay; conditions: Compound concentration 10.0 uM
[4] = target: Delta-type opioid receptor (Homo sapiens) (UniProt P41143); conditions: Compound concentration 10.0 uM
D(3) dopamine receptor = D(3) dopamine receptor (Homo sapiens, UniProt P35462); experiment: GPCRScan assay: inhibition of D3; set-up: radioligand conc. used [nm] 0.5 – 1.8, parental cells HEKT
[5] = target: Sodium-dependent dopamine transporter (Homo sapiens, UniProt Q01959); experiment: GPCRScan assay: inhibition of DAT; set-up: radioligand conc. used [nm] 3.6 – 16.0, parental cells stable HEK
[6] = target: Alpha-1D adrenergic receptor (Homo sapiens, UniProt P25100); experiment: GPCRScan assay: inhibition of Alpha1D; set-up: radioligand conc. used [nm] 0.3 – 1.0, parental cells stable
[7] = target: T1, 5-hydroxytryptamine receptor 3A (Homo sapiens) (UniProt P46098); experiment: Inhibition of Serotonin (5-Hydroxytryptamine) 5-HT3 at 10 µM in the Eurofins-Panlabs radioligand binding assay (Eurofins_assay_271910); set-up: ligand concentration 0.69 nM; conditions: Compound concentration 10.0 uM
T1 sequence (whole entry): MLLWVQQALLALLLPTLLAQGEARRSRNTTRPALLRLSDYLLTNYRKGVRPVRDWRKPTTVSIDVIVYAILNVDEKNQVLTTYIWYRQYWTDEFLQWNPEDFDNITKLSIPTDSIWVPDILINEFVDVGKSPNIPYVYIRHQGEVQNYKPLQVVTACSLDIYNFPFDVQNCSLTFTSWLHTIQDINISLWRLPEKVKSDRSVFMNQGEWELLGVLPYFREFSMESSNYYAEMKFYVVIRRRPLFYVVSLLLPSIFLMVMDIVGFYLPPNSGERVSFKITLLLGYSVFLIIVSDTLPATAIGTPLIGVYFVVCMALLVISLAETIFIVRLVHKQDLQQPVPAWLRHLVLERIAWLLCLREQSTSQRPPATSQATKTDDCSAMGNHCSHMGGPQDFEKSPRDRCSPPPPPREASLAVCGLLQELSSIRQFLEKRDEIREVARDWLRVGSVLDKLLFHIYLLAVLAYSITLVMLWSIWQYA

[8] = target: Cathepsin G (Homo sapiens) (UniProt P08311); experiment: Inhibition of Peptidase, CTSG (Cathepsin G) at 10 µM in the Eurofins-Panlabs enzyme assay (Eurofins_assay_112510); set-up: substrate with concentration; conditions: Compound concentration 10.0 uM
Bos taurus = species on record: Bos taurus; experiment: Protein Serine/Threonine Kinase, PKA, Non-Selective Eurofins-Panlabs enzyme assay; type: protein-complex assay; set-up: substrate with concentration 370 µg/mL Histone Type III-S, incubation time 15 min, incubation temperature 25 °C; conditions: Compound concentration 10.0 uM
Rattus norvegicus [9] = species on record: Rattus norvegicus; experiment: Protein Serine/Threonine Kinase, PKC, Non-Selective Eurofins-Panlabs enzyme assay; conditions: Compound concentration 10.0 uM
[10] = target: Polyunsaturated fatty acid 5-lipoxygenase (Homo sapiens) (UniProt P09917); experiment: Lipoxygenase 5-LO Eurofins-Panlabs enzyme assay; conditions: Compound concentration 10.0 uM
[11] = target: Carbonic anhydrase (Homo sapiens) (UniProt P00918+P43166+P00915+P07451+P23280+O43570+Q9ULX7+Q16790+P22748+Q8N1Q1+Q9Y2D0+P35218); experiment: Carbonic Anhydrase Eurofins-Panlabs enzyme assay; type: protein assay; conditions: Compound concentration 10.0 uM
[12] = target: 3-hydroxy-3-methylglutaryl-coenzyme A reductase (Homo sapiens) (UniProt P04035); experiment: HMG-CoA Reductase Eurofins-Panlabs enzyme assay; conditions: Rattus norvegicus; Compound concentration 10.0 uM
[13] = target: Coagulation factor VII (Homo sapiens) (UniProt P08709); experiment: Peptidase, Factor VIIa Eurofins-Panlabs enzyme assay; set-up: substrate with concentration; conditions: Compound concentration 10.0 uM
[14] = target: Matrilysin (Homo sapiens) (UniProt P09237); experiment: Peptidase, Matrix Metalloproteinase-7 (MMP-7) Eurofins-Panlabs enzyme assay; set-up: substrate with concentration; conditions: Compound concentration 10.0 uM
[15] = target: Cyclin-dependent kinase 1/cyclin B (Homo sapiens) (UniProt P06493+P14635+Q8WWL7+O95067); experiment: Protein Serine/Threonine Kinase, cdk1/Cyclin B Eurofins-Panlabs enzyme assay; type: protein-complex assay; conditions: Compound concentration 10.0 uM
[16] = target: Glycogen synthase kinase-3 beta (Homo sapiens) (UniProt P49841); experiment: Protein Serine/Threonine Kinase, GSK-3β Eurofins-Panlabs enzyme assay; set-up: substrate with concentration; conditions: Compound concentration 10.0 uM
[17] = target: RAC-alpha serine/threonine-protein kinase (Homo sapiens) (UniProt P31749); experiment: Protein Serine/Threonine Kinase, PKBα/Akt1 Eurofins-Panlabs enzyme assay; conditions: Compound concentration 10.0 uM
[18] = target: Protein phosphatase 3 catalytic subunit alpha (Homo sapiens) (UniProt Q08209); experiment: Protein Serine/Threonine Phosphatase, Calcineurin, PP2B Eurofins-Panlabs enzyme assay; conditions: Compound concentration 10.0 uM
[19] = target: Steroid 5-alpha-reductase (Rattus norvegicus) (UniProt P24008+P31214); experiment: Steroid 5α-Reductase Eurofins-Panlabs enzyme assay; type: protein assay; set-up: substrate with concentration; conditions: Compound concentration 10.0 uM
[20] = target: Thromboxane-A synthase (Homo sapiens) (UniProt P24557); experiment: Thromboxane Synthase Eurofins-Panlabs enzyme assay; conditions: Compound concentration 10.0 uM
[21] = target: Neuromedin-K receptor (Homo sapiens) (UniProt P29371); experiment: as §1; conditions: Compound concentration 10.0 uM
[22] = target: 5-hydroxytryptamine receptor 2C (Homo sapiens) (UniProt P28335); conditions: Compound concentration 10.0 uM
[23] = target: 5-hydroxytryptamine receptor 6 (Homo sapiens) (UniProt P50406); conditions: Compound concentration 10.0 uM
[24] = target: Sodium-dependent noradrenaline transporter (Homo sapiens) (UniProt P23975); conditions: Compound concentration 10.0 uM
[25] = target: Alpha-1B adrenergic receptor (Homo sapiens) (UniProt P35368); conditions: Compound concentration 10.0 uM
[26] = target: T2, Muscarinic acetylcholine receptor M2 (Homo sapiens) (UniProt P08172); conditions: Compound concentration 10.0 uM
T2 sequence (whole entry): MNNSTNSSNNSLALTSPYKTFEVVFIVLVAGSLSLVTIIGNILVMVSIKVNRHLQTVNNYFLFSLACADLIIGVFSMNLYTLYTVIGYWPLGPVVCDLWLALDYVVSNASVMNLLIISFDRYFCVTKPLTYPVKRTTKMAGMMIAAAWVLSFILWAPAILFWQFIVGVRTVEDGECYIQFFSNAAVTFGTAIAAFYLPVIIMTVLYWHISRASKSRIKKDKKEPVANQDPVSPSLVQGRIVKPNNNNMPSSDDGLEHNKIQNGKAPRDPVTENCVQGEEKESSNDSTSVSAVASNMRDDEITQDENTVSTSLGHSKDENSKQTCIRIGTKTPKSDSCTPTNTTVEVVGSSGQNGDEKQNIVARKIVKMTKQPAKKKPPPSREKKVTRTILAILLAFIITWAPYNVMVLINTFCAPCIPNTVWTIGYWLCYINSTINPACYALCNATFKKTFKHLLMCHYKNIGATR

Rattus norvegicus [27] = species on record: Rattus norvegicus; conditions: Compound concentration 10.0 uM
[28] = target: cGMP-specific 3',5'-cyclic phosphodiesterase (Homo sapiens) (UniProt O76074); conditions: Compound concentration 10.0 uM
[29] = target: Xanthine dehydrogenase/oxidase (Bos taurus) (UniProt P80457); experiment: Xanthine Oxidase Eurofins-Panlabs enzyme assay; conditions: cattle, bovine milk xanthine oxidase, probe Xanthine, 165 µM
Xanthine dehydrogenase/oxidase (Bos taurus), sequence (P80457 whole entry, looked up): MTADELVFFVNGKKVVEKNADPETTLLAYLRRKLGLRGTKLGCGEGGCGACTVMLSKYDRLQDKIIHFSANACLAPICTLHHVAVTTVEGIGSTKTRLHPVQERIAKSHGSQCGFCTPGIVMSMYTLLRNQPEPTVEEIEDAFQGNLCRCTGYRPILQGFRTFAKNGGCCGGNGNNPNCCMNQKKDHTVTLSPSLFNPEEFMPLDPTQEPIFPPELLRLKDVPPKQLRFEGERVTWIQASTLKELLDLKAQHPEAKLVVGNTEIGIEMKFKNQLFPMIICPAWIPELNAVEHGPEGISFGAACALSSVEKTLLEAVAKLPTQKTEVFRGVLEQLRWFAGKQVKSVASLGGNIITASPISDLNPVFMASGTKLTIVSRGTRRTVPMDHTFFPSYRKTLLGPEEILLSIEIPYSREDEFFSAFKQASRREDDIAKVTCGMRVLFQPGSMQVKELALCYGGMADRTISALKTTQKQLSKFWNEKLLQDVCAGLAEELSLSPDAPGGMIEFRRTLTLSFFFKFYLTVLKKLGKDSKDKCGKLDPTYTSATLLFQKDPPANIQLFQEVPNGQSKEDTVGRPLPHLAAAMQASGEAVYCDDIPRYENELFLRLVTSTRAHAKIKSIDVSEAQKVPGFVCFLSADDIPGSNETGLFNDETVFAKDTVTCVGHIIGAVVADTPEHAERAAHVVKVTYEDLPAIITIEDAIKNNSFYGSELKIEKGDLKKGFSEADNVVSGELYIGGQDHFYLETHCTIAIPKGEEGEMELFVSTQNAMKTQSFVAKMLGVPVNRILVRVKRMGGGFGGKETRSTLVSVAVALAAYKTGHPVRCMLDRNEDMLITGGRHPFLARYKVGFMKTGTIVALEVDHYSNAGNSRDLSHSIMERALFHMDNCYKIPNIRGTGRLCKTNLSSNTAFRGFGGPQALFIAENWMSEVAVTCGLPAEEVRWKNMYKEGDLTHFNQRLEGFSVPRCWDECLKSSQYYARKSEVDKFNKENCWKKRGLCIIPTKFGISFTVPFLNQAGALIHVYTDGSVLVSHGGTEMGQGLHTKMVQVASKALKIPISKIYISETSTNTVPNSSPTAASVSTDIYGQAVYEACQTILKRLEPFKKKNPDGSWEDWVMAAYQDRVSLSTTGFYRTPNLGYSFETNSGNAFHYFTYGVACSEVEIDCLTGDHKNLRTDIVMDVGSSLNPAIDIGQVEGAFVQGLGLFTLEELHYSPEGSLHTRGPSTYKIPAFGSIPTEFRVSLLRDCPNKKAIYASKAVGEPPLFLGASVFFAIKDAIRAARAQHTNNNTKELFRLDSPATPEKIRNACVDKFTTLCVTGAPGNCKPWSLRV

Sodium-dependent dopamine transporter, sequence (Q01959 whole entry): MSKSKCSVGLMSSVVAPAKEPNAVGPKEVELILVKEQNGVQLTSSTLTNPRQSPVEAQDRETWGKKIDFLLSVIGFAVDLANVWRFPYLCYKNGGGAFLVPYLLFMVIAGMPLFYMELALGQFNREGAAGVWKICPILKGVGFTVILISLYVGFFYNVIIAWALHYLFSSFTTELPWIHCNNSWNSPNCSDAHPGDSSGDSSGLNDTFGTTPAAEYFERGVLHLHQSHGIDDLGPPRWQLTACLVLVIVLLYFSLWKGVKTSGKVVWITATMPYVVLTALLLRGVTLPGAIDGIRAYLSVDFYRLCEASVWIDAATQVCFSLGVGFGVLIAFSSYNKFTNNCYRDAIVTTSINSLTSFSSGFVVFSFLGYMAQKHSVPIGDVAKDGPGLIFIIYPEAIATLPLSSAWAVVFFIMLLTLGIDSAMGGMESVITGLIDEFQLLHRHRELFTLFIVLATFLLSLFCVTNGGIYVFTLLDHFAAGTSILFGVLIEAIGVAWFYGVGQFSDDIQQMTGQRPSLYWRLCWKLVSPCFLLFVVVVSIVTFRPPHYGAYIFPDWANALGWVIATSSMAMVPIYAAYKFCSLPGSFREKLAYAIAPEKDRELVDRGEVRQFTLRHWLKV
Neuromedin-K receptor (Homo sapiens), sequence (P29371 whole entry): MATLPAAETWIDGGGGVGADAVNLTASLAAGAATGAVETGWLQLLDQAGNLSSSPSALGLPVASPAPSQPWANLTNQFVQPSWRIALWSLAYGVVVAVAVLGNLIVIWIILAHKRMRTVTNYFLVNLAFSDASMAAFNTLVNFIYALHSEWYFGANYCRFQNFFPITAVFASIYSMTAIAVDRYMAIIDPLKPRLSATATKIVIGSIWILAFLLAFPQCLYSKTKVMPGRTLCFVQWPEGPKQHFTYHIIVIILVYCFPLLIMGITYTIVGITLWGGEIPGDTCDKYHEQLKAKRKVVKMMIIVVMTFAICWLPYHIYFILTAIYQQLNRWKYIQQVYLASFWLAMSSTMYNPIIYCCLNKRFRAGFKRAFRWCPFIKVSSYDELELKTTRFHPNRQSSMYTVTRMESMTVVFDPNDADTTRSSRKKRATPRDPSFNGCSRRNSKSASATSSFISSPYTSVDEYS
Alpha-1B adrenergic receptor (Homo sapiens), sequence (P35368 whole entry): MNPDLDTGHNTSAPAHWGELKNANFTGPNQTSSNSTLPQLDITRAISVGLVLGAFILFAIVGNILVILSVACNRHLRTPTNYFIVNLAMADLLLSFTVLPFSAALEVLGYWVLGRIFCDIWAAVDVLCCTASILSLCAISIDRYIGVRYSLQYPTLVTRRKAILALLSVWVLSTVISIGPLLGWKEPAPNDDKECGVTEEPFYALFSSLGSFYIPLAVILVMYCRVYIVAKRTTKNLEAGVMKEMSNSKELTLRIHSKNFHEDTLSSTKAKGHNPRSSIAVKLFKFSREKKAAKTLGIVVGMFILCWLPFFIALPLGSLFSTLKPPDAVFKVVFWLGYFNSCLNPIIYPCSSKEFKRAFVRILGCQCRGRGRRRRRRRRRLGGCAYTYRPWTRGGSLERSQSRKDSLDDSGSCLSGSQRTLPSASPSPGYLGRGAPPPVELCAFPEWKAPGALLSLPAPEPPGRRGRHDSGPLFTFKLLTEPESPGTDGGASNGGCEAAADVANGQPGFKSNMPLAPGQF
D(3) dopamine receptor, sequence (P35462 whole entry): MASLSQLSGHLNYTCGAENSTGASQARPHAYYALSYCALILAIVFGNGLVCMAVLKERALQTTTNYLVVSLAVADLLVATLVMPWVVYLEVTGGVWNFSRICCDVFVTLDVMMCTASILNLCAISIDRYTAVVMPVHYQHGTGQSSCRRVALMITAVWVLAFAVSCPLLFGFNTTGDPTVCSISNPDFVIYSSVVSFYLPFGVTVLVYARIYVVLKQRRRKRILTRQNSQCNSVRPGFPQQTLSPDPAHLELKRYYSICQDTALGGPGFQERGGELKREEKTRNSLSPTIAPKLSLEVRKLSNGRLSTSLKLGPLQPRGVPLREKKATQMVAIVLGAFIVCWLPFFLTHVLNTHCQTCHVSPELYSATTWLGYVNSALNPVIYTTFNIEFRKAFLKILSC
3-hydroxy-3-methylglutaryl-coenzyme A reductase (Homo sapiens), sequence (P04035 whole entry): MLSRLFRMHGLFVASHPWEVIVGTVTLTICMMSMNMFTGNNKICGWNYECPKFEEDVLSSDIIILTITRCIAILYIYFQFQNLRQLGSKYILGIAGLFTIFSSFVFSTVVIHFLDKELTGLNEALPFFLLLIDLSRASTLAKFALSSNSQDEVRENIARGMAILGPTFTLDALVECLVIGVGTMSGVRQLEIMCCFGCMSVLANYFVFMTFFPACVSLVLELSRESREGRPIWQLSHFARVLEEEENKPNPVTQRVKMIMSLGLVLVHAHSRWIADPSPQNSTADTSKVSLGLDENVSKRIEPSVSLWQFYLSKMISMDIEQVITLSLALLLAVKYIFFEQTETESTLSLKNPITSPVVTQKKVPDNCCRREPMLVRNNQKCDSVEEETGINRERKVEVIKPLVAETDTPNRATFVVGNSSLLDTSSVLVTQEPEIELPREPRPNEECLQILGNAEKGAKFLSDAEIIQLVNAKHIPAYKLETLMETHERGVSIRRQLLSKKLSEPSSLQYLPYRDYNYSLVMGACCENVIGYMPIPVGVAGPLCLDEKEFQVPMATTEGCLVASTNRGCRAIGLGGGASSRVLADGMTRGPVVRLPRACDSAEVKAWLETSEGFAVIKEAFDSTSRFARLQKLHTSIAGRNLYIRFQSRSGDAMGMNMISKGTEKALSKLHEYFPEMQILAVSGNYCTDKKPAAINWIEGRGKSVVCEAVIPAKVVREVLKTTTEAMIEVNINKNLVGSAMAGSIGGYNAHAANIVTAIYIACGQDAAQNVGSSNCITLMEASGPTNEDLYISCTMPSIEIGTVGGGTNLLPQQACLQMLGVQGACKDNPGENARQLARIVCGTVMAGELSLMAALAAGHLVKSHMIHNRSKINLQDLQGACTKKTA
Glycogen synthase kinase-3 beta (Homo sapiens), sequence (P49841 whole entry, looked up): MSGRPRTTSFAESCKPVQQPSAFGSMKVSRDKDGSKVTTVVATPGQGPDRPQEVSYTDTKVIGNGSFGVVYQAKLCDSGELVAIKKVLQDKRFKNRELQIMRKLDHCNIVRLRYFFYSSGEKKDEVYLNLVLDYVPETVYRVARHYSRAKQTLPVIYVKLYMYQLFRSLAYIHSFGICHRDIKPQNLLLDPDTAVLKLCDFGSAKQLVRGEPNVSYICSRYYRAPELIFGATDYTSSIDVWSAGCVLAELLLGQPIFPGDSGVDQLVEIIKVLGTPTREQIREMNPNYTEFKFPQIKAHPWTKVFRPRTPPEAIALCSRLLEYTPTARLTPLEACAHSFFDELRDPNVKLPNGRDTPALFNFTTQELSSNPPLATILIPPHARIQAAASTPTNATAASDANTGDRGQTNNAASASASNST
C5a anaphylatoxin chemotactic receptor 1 (Homo sapiens), sequence (P21730 whole entry): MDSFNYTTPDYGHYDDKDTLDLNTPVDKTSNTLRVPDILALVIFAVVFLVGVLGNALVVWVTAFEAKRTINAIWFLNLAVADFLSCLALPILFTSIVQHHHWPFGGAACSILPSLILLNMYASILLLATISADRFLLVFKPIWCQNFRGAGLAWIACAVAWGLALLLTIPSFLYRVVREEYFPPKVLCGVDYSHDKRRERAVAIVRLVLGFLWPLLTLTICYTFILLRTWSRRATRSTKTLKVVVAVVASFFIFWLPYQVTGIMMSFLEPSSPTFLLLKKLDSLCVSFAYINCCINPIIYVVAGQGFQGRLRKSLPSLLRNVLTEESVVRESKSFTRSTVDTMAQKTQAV

SMILES: Cc1cc(OC2CCS(=O)(=O)CC2)cc(C)c1-c1cccc(COc2ccc(C(=O)O)c(F)c2)c1
inhibition (Homo sapiens): 5%
inhibition [1]: 10%
EC50 [2]: > 10 µM (not active)
inhibition [3]: -1%
inhibition [4]: -7.07%

Ki (D(3) dopamine receptor): 0.925 µM
Ki [5]: > 10 µM
pKi [5]: < 5
Ki [6]: 7.52 µM
inhibition [7]: -3%
inhibition [8]: 20%
inhibition (Bos taurus): 5%
inhibition (Rattus norvegicus [9]): -8%
inhibition [10]: 85%
inhibition [11]: 27%
inhibition [12]: -5%
inhibition [13]: -10%
inhibition [14]: 1%
inhibition [15]: 14%
inhibition [16]: 19%
inhibition [17]: -1%
inhibition [18]: 10%
inhibition [19]: 19%
inhibition [20]: 64%
inhibition [21]: 30%
inhibition [22]: 14.1%
inhibition [23]: -7.86%
inhibition [24]: 19.1%
inhibition [25]: 0.86%
inhibition [26]: 2.31%
inhibition (Rattus norvegicus [27]): -0.04%
inhibition [28]: -6%
inhibition at 30 min, 10 µM [29]: 1% (not active)
SMILES: Cc1cc(OC2CCS(=O)(=O)CC2)cc(C)c1-c1cccc(COc2ccc(CCC(=O)O)c(F)c2)c1

Reference: ChEMBL document CHEMBL5058642, “Data for DCP probe TP-051” (2022)
